Measured values published in patent publication US10869922B2 (priority 2016, dated 2020).

What was measured:
DC = assay: Immunofluorescence co-localization experiment; assay type: cell-based, mouse; conditions: DC treated by high NaCl concentration, FIG. 10d
Excerpt: Immunofluorescence co-localization experiment: the experimental group, ibid. Fix and permeabilize DC stimulated by high NaCl concentration and fluorescent labeled OVA in vitro, and stain with organelle fluorescent protein markers of proteasome and lysosome, and observe under the confocal microscopy.

[1] = tested on: DC and CD8+T lymphocytes from OT-1 transgenic mouse; assay: DC/T lymphocyte co-culture experiment; assay type: cell-based
Excerpt: Co-culture DC stimulated by high NaCl concentration and OVA antigen in vitro and CFSE-labeled CD8+T lymphocytes from OT-1 transgenic mouse for 2-3 days, observe the formation of CLUSTER under white light of the microscope, detect the proliferation of CFSE-labeled CD8+T lymphocytes by flow cytometry, and detect the secretion of IL2 in the collected culturesupernatant by ELISA.

[2] = DC treated by high NaCl concentration and OVA, co-culture 2-3 days, FIGS. 10a, b and c

## [Cl-].[Na+] [NaCl, sodium chloride]
DC
  degradation route of OVA in DC: mostly degraded by proteasome rather than lysosome
[1]; [2]
  proliferation of specific CD8+T lymphocytes: induce
  secretion of IL2: induce
[1]; high NaCl concentration, FIG. 10
  cross antigen presentation of DC: significantly improve
